In patent US8129406B2, “Nonpeptide inhibitors of matrix metalloproteinases” (Southern Research Institute, priority 2004, dated 2012):

Tests used:
[1] = test system: nontumorigenic human fibroblasts cells (HF); assay: Functional evaluation in Amgel models, nontumorigenic fibroblasts; format: cell-based
MMP-9 = molecular target: T1, MMP-9 (Homo sapiens, UniProt P14780); assay: Enzyme inhibition assay, fluorometric substrate degradation, MMP-9; format: biochemical; settings: purified human rMMP-9, fluorogenic substrate; read-out: Inhibition Potencies, IC50, MMP-9
T1 construct: Human rMMP-2 and -9 were purified in active forms; made in house
Description: (§1) For kinetic studies, a standard fluorimetric assay based on hydrolysis of fluorogenic synthetic substrate (1 μM of McaPLGLDpaAR) was used. […] Both concentration and time-dependent cleavage were monitored. Controls included trypsin (non-specific cleavage) and bacterial collagenase (total cleavage) and other zinc-protease (ACE, endopeptidase). […] The IC50 values were converted to Ki values using the equation, Ki=IC50/(1+S/Km). […] Inhibition kinetics of various MMPs were also determined using substrate-degradation ELISA kits from Chemicon (Temecula, Calif.). See C.
(§2) Substrate specificity for MMP-1, -2, and -9 was assessed by degradation of labeled-collagen I and IV. […] Inhibitory potency and selectivity was also analyzed using a gelatin or collagen zymography followed by densitometric analysis. Labeled collagen I or IV degradation assay (zymography) was used for M-1, -2 and -9 activities and their inhibition. Bacterial collagenase and EDTA (10 mM) was included as positive and negative controls. In situ zymography film technique was also used for measurement of MMP-2 and MMP-9 (gelatinolytic) activities and their inhibition by drug treatment in target cells and tissue samples.

Endopeptidase = assay: Enzyme inhibition assay, endopeptidase (other zinc-protease control); format: biochemical; settings: for IC50: read-out: Inhibition Potencies, IC50, Endopeptidase
Description: (§3) Human rMMP-2 and -9 were purified in active forms, and purified MMP-1, -3 and -13 were obtained from commercial sources (Chemicon; Temecula, Calif.) in zymogen form and were activated by 1 mM APMA or PCMB treatment (2 hrs at 37° C.). For kinetic studies, a standard fluorimetric assay based on hydrolysis of fluorogenic synthetic substrate (1 μM of McaPLGLDpaAR) was used. For each assay, target MMP (1 μM) and increasing concentrations of test compound were incubated at 25° C. for 30-60 min and the rate of substrate hydrolysis was measured by Perkin-Elmer fluorometer at an excitation 328 nm and an emission 393 nm settings. Both concentration and time-dependent cleavage were monitored. Controls included trypsin (non-specific cleavage) and bacterial collagenase (total cleavage) and other zinc-protease (ACE, endopeptidase). IC50 values (the concentration at which 50% enzyme activity is inhibited) were determined by plots of % activity versus negative log of agent concentration. The IC50 values were converted to Ki values using the equation, Ki=IC50/(1+S/Km). The Km values (μM) were calculated from the […] values of 3-5 separate experiments. Inhibition kinetics of various MMPs were also determined using substrate-degradation ELISA kits from Chemicon (Temecula, Calif.). See C. Knight, et al., FEBS Lett., 1992, 296, 263-266; L. Windsor, et al., Biochem. Biophys. Acta […], 1334, 261-272, which are incorporated by reference herein for their teachings of enzyme inhibition assays.

MMP-2 = molecular target: T2, MMP-2 (Homo sapiens, UniProt P08253); assay: Enzyme inhibition assay, fluorometric substrate degradation, MMP-2; format: biochemical; settings: purified human rMMP-2, fluorogenic substrate; read-out: Inhibition Potencies, IC50, MMP-2
T2 construct: Human rMMP-2 and -9 were purified in active forms; made in house
T2 sequence (P08253 110-660): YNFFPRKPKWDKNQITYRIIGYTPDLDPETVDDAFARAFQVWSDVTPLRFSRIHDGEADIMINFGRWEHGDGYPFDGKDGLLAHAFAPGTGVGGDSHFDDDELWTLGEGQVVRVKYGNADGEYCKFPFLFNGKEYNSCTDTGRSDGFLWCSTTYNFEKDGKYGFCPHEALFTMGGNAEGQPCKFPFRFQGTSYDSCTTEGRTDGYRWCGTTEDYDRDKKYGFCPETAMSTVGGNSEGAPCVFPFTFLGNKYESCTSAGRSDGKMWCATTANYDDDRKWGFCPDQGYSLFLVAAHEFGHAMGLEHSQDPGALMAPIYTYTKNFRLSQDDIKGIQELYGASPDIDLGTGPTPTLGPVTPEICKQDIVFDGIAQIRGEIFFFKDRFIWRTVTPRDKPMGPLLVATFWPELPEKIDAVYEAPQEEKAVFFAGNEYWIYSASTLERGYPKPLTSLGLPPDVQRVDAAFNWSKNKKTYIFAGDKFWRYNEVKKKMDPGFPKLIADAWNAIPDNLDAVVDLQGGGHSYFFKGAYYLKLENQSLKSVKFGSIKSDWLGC
Description: as §1, §2

[2] = Cell proliferation and cell viability at the tested concentrations; format: cell-based; settings: at the tested concentrations (data not shown)
MMP-3 = molecular target: T3, MMP-3 (Homo sapiens, UniProt P08254); assay: Enzyme inhibition assay, fluorometric substrate degradation, MMP-3; format: biochemical; settings: Minienzyme used; read-out: Inhibition Potencies, IC50, MMP-3
T3 construct: purchased Chemicon
Description: as §3
MMP inhibitor selectivity determinations: Both quantitative labeled-substrate and FITC-biopeptide (matrix-specific) assays were used to examine the selective inhibition of MMP activities. Substrate specificity for MMP-1, -2, and -9 was assessed by degradation of labeled-collagen I and IV. Typically, MMP-dependent biomatrix degradation was monitored in the presence and absence of candidate compounds (0.5-500 μm) after 60-90 min incubations. Inhibitory potency and selectivity was also analyzed using a gelatin or collagen zymography followed by densitometric analysis. […]

HF [3] = assay: Amgel human tumor cell invasion bioassay, HF; format: cell-based; settings: 72 hours incubation at 50-100 μM
HT-1080R [4] = assay: Amgel human tumor cell invasion bioassay, HT-1080R; format: cell-based; settings: 72 hours incubation at 50-100 μM
Description: (§4) Human tumor cell invasion bioassay: Amgel-coated filters (8 μm) were used as tissue biomatrix barriers placed between Lucite chambers. Labeled cells (50,000) were seeded onto reconstituted-Amgel filters (75 μg) and the lower chambers were filled with media containing 5% dialyzed serum. Test compounds (0.5-100 μM) were added and incubated for 72 hours. Contents from the lower chamber were collected to resolve cell-bound and free radioactivity. See G. Siegal, et al., Cancer Lett. 1993, 69, 123-132; L. Goodly, et al., Tumor Biology 1994, 15, 326-336; M. Ikeda, et al., Clin. Cancer. Res. 2000, 6, 3290-3296; R. Singh, et al., In Vitro Cell Develop. Biol., 2002, 38, 11.
(§5) Evaluation of the compounds 1c and 2c in Amgel human tumor invasion and angiogenesis models (72 hours incubation at 50-100 μM) was performed using two human HT-1080 cancer cell sublines (HT-1080-B and HT-1080-R). The results of these assays with compound 2c are shown in Table 2 and FIG. 1 (data for compound 1 c not shown).

HF [5] = assay: Amgel human tumor angiogenesis bioassay, HF; format: cell-based; settings: 72 hours incubation at 50-100 μM
Description: (§6) Human tumor angiogenesis bioassay: Angiogenesis was induced by coculture of human endothelial cells (HUVECs) with tumor cells or defined angiogenic factor (FGF). Tumor cells media (from 24-hour serum-free cultures) were used to induce a biological angiogenic response using human glioma cell lines producing different concentrations of VEGF or by using purified factors such as 20 μM FGF. Endothelial cells were seeded onto Amgel-coated filters and induced with a angiogenic media+/−candidate MMP inhibitors. Varying concentrations of test compounds (0.5-500 μM) and incubation times (1-7 days) were applied, and endothelial cell differentiation (sprouting and tubule-like capillary formation) were examined by light microscopy and a computerized digital system.
as §5

HT-1080B [6] = assay: Amgel human tumor cell invasion bioassay, HT-1080B; format: cell-based; settings: 72 hours incubation at 50-100 μM
Description: as §4, §5

HT-1080B [7] = assay: Amgel human tumor angiogenesis bioassay, HT-1080B; format: cell-based; settings: 72 hours incubation at 50-100 μM
Description: as §6, §5

HT-1080R [8] = assay: Amgel human tumor angiogenesis bioassay, HT-1080R; format: cell-based; settings: 72 hours incubation at 50-100 μM
Description: as §6, §5

T3 sequence (P08254 100-477, species assumed): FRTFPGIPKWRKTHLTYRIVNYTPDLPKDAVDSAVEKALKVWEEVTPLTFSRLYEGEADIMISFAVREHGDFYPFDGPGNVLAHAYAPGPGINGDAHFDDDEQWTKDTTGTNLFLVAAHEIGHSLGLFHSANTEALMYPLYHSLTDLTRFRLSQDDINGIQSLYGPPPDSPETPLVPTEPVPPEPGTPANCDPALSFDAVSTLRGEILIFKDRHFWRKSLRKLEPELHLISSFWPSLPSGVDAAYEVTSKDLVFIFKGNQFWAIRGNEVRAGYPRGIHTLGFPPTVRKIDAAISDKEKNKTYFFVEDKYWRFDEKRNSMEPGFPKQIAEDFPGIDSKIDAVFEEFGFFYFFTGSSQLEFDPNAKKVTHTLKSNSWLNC
T1 sequence (P14780 107-707 limits assumed): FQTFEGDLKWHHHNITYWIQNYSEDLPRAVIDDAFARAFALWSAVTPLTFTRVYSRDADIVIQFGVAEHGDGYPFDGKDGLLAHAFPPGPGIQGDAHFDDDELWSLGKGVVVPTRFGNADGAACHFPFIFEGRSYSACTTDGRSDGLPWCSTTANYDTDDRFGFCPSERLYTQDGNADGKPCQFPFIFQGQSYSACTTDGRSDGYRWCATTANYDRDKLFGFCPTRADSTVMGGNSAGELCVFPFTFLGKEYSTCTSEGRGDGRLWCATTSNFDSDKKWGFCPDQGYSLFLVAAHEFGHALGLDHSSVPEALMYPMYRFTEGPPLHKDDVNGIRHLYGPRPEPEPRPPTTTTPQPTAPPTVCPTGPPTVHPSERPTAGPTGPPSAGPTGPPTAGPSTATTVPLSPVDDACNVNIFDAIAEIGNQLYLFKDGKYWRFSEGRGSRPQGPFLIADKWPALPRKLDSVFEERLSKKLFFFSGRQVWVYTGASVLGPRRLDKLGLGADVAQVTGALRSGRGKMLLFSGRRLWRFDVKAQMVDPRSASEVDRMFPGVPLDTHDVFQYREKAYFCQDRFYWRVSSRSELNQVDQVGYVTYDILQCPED

Row | IC50 (MMP-9) [nM] | IC50 (Endopeptidase) [nM] | IC50 (MMP-2) [nM] | melting point [°C] | IC50 (MMP-3) [nM] | Inhibition Potencies, IC50, Endopeptidase (Endopeptidase) | SMILES | effect on nontumorigenic human fibroblasts cells (HF) [1] | effect on cell proliferation [2] | effect on cell viability [2] | % Inhibition, Tumor invasion (HF [3]) | % Inhibition, Tumor invasion (HT-1080R [4]) [%] | % Inhibition, Tumor angiogenesis (HF [5]) | % Inhibition, Tumor invasion (HT-1080B [6]) [%] | % Inhibition, Tumor angiogenesis (HT-1080B [7]) [%] | % Inhibition, Tumor angiogenesis (HT-1080R [8]) [%]
1 | 175 | > 20000 | 150 | 74 to 76 | > 3000 |  | O=C(NO)[C@@H]1CCCC[C@@H]1NS(=O)(=O)c1ccc(-c2ccccc2)cc1 (racemic) [compound 1c, (cis)-N-Hydroxy-2-[[(4-Biphenyl)sulfonyl]amino]cyclohexanecarboxamide] | neither compound 1c nor compound 2c had any effect | no effect | no effect |  |  |  |  |  | 
2 |  |  |  | 182 to 184 |  |  | O=C(NO)[C@@H]1CCCC[C@H]1NS(=O)(=O)c1ccc(Oc2ccccc2)cc1 (relative stereo) [compound 2d, (trans)-N-Hydroxy-2-[(4-Phenoxybenzenesulfonyl)amino]cyclohexane-carboxamide] |  |  |  |  |  |  |  |  | 
3 |  |  |  |  | 80 | not detectable | CNC(=O)[C@H](Cc1c[nH]c2ccccc12)NC(=O)[C@@H](CC(=O)NO)CC(C)C [GM-6001, reference compound] |  |  |  |  |  |  |  |  | 
4 | 145 | > 20000 | 125 | 212 to 214 | > 3000 |  | O=C(NO)[C@@H]1CCCC[C@H]1NS(=O)(=O)c1ccc(-c2ccccc2)cc1 (racemic) [compound 2c, (trans)-N-Hydroxy-2-[[(4-Biphenyl)sulfonyl]amino]cyclohexanecarbox-amide] | neither compound 1c nor compound 2c had any effect | no effect | no effect | No effect | 60 ± 5 | No effect | 50 ± 8 | 45 ± 4 | 40 ± 6
